{"source": "paper PMC11266932", "about": "“Enhanced absorption of prenylated cinnamic acid derivatives from Brazilian green propolis by turmeric in humans and rats” (Food Science & Nutrition, 2024)", "key": {"[1]": {"assay": "Animal study: plasma concentration and AUC of cinnamic acid derivatives after intragastric BGP with or without each herbal extract", "format": "in vivo, Wistar/ST rats", "conditions": "rats; for plasma concentration, BGP alone versus BGP and turmeric (in words): 24 h post-ingestion; for AUC: intragastric, 0–24 h, mean ± SD, n = 8", "protocol": "Wistar/ST rats (male, 7 weeks old) were purchased from Japan SLC (Shizuoka, Japan). […] The rats were quarantined and acclimatized under the above conditions for 1 week and divided into six groups (eight rats/group) according to their average body weight (240–260 g). Each test sample listed in Table 1 was dissolved in 10% propylene glycol (1 mL per rat) and administered intragastrically to the rats after an overnight fasting period with free access to water. […] The collected samples were centrifuged at 1500 g for 10 min at 4°C to separate the plasma and preserved at −80°C until further sample preparation.\nBriefly, 50 μL of plasma was treated with a sulfatase/β‐glucuronidase solution (sulfatase 15 units/sample) in 100 mM sodium acetate and 5 mM ascorbate at 37°C for 1 h. Following the incubation, 850 μL of methanol was added to the samples to stop the deconjugation reaction, after which centrifugation was performed at 2000 g for 10 min at 23 ± 2°C. The supernatant was evaporated under nitrogen gas and then reconstituted in a fixed volume of methanol. The samples were filtered through a 0.22 μm PTFE membrane and then analyzed by LC–MS/MS.\nBriefly, 5 μL of the sample was injected into a reversed‐phase column (Acquity UPLC BEH C18, 2.1 × 100 mm, ID. 1.7 μm; Waters, Milford, MA, USA) held at 30°C. The elution was performed using solvent A (0.1% formic acid) and solvent B (acetonitrile) at a flow rate of 0.3 mL/min. The gradient profiles were as follows: 5% B (0–2 min), 5–95% B (2–22 min), 95% B (22–25 min), and 5% B (25–30 min). Tandem mass spectrometry (MS/MS) was conducted using an ion trap mass spectrometer with a heated electrospray ion source (HESI) in both positive and negative ionization modes (scan range m/z 70–1000). […] External standard curves for cinnamic acid derivatives were generated using eight concentrations of authentic standard solutions (1, 5, 10, 50, 100, 250, 500, and 1000 ng/mL).\nQuantification of cinnamic acid derivatives in the plasma was performed using the Trace Finder software version 4.1 (Thermo Scientific). The plasma concentration versus time data for the analytes obtained from each human and rat were entered into a Microsoft Excel spreadsheet. The area under the plasma concentration–time curve (AUC) was calculated using the linear trapezoidal rule, extending to the last sampling point."}, "MDCK II cell monolayer": {"test_system": "MDCK II cell monolayer", "assay": "Bidirectional transport assay across parent MDCK II cell monolayer", "format": "in vitro ADME, canine", "conditions": "10 μM; for Papp MDCK II A to B / Papp MDCK II B to A: 120 min, mean ± SE, n = 2", "protocol": "(§1) The Madin‐Darby canine kidney (MDCK II) cell line and MDCK II cells overexpressing multidrug resistance 1 (MDR1) or breast cancer resistance protein (BCRP) were purchased from the Netherlands Cancer Institute (Amsterdam, Netherlands) and SOLVO Biotechnology (Szeged, Hungary), respectively. The cell lines were routinely cultured in Dulbecco's modified Eagle's medium (DMEM) containing 10% fetal bovine serum and 1% penicillin/streptomycin at 37°C in 5% CO2. All cells were seeded in a feeder tray at a density of 3–6 × 10^4 cells/well and grown for 3–4 days. On the day of the transport study, cell monolayers were washed with Hanks' balanced salt solution (HBSS) buffer containing 0.1% BSA (pH 7.4) and incubated at 37°C for 20 min. Artepillin C and drupanin dissolved in DMSO (10 mM) were added to the transport buffer (HBSS containing 10 mM HEPES, 0.2% glucose, 0.1% BSA, pH 7.4) to a final concentration of 10 μM and then loaded into the apical or basolateral chamber. After 120 min of incubation, 150 μL of the aliquots were collected from the donor and receiver chambers and mixed with an equal volume of 50% methanol. After centrifugation at 3000 rpm for 10 min at 4°C, the supernatants were filtered and subjected to LC–MS/MS analysis.\n(§2) The in vitro samples were analyzed using HPLC (LC‐20A, Shimadzu, Kyoto, Japan) with a reversed‐phase column (Inertsil ODS‐3, 2.1 × 33 mm, ID. 3 μm, GL Sciences, Tokyo, Japan) held at 40°C. The mobile solvents used were water with 10 mM ammonium acetate (pH 4.0, A) and methanol (B) pumped at a flow rate of 0.4 mL/min. The following gradient was employed: 10%–90% B (0–0.5 min), 90% B (0.5–2.5 min), and 10% B (2.5–4 min). The eluent was monitored using a triple quadrupole mass spectrometer (API 4000, AB Sciex, Framingham, MA, USA) incorporating an electrospray ion source (ESI) operating in the multiple reaction monitoring mode. The ESI source was operated in negative ionization mode at 600°C with a spray voltage of −4.5 kV. The curtain gas (nitrogen), collision gas (nitrogen), nebulizer gas (whole air), and drying gas (whole air) were set at 40, 5, 50, and 70 psi, respectively. […] Artepillin C and drupanin were diluted in 50% methanol to concentrations of 1.6, 3.2, 8, 40, 200, 1000, and 2000 nM and were used as external standards. Sulfaphenazole (0.2 μM) was used as an internal standard.\n(§3) The apparent permeability coefficients (Papp) for both directions, from the apical side to the basolateral side (A to B) and from the basolateral side to the apical side (B to A) in the cell monolayer, were calculated using the following equation: (1) Papp=dQ/dt/A×C0 where dQ/dt is the permeation rate (nmol/s), A is the membrane area (cm^2), and C0 is the initial concentration of the compound in the donor compartment (nM). The efflux ratios (ER) in the B‐to‐A and A‐to‐B directions were determined using the following equation: (2) ER=PappBtoA/PappAtoB"}, "MDR1 (P-gp)": {"molecular_target": "T1, MDR1 (P-gp) (Homo sapiens, UniProt P08183)", "T1 construct": "host or cells: MDCK II (Madin-Darby canine kidney) cells overexpressing MDR1", "T1 sequence (P08183 whole entry)": "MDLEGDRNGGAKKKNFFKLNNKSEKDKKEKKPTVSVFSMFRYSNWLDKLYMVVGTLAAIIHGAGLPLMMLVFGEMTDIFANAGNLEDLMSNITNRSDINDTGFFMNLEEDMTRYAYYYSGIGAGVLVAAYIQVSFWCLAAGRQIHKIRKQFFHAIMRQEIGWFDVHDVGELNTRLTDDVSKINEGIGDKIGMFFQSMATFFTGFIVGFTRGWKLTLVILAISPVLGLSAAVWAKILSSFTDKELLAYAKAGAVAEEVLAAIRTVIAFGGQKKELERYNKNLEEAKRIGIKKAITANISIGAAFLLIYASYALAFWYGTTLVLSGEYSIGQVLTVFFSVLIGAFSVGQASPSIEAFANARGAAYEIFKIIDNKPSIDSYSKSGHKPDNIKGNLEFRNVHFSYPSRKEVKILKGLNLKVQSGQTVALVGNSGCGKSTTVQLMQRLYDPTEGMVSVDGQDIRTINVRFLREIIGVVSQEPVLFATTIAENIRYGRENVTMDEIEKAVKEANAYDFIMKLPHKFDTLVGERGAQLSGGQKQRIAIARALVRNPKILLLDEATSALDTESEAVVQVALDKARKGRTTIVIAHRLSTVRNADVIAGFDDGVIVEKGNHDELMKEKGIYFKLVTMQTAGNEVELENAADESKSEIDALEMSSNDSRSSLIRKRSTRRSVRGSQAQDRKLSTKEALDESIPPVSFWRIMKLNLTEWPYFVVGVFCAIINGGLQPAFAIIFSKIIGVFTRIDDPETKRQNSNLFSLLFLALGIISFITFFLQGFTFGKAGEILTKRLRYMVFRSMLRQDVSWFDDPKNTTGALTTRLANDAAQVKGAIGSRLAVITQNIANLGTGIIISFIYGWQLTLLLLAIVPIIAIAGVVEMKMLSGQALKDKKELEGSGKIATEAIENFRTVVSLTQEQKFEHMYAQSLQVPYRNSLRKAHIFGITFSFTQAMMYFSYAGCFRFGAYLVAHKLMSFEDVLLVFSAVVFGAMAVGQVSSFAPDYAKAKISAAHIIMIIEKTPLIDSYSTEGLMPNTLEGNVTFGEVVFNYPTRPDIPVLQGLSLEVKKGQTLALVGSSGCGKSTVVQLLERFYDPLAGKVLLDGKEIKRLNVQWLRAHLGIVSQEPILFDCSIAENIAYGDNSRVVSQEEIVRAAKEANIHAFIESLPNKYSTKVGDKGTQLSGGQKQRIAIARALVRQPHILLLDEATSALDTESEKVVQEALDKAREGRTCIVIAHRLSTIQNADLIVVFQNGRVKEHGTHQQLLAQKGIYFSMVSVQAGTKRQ", "assay": "Bidirectional transport assay across MDCK II-MDR1 cell monolayer", "format": "in vitro ADME", "conditions": "dog, MDCK-MDR1, pH 7.4", "protocol": "as §1, §2, §3\nNet flux ratios were calculated by dividing the ER obtained from MDCK II‐MDR1 (or BCRP) cells by that obtained from the parent MDCK II cells."}, "[2]": {"assay": "Bidirectional transport assay across parent MDCK II cell monolayer", "format": "in vitro ADME, canine", "conditions": "dog; for efflux ratio at 120 min, 10 μM: MDCK, pH 7.4, 10 μM, Papp B to A / Papp A to B, read-out: Flux ratio (MDCK II) (efflux ratio, ER); for Papp A→B at 120 min, 10 μM / Papp B→A at 120 min, 10 μM: mean ± SE, n = 2", "protocol": "as §1, §2, §3"}, "[3]": {"conditions": "BGP co-administered with gotu kola extract"}, "[4]": {"conditions": "BGP co-administered with turmeric extract"}, "[5]": {"conditions": "parent cells of the BCRP experiment (Table 3)"}, "[6]": {"conditions": "parent cells of the MDR1 experiment (Table 2)"}, "[7]": {"conditions": "10 μM, 120 min, mean ± SE, n = 2"}, "[8]": {"conditions": "MDCK-MDR1, pH 7.4, parent cells of the MDR1 experiment (Table 2)"}, "[9]": {"conditions": "pH 7.4, parent cells of the BCRP experiment (Table 3)"}}, "note": "“Also recorded” adds a separate entry of the source. Like-named read-outs stand apart in the source and are kept apart here.", "data": [{"molecule": "CC(C)=CCc1cc(/C=C/C(=O)O)cc(CC=C(C)C)c1O", "note": "[artepillin C]", "values": [{"measurement": "plasma concentration, BGP alone versus BGP and turmeric (in words)", "setting": "[1]", "value": "did not differ"}, {"measurement": "AUC", "setting": "[1]; BGP 75 mg/kg administered alone", "value": "1018.0 ± 184.5", "unit": "ng·h/mL"}, {"measurement": "AUC", "setting": "[1]; BGP 75 mg/kg co-administered with turmeric extract 250 mg/kg", "value": "1377.2 ± 320.2", "unit": "ng·h/mL"}, {"measurement": "peaks of the plasma concentration–time curve", "setting": "[1]; BGP + turmeric extract", "value": "two distinct peaks at 30 min and 6 h"}, {"measurement": "fold increase of plasma concentration versus BGP alone", "setting": "[1]; BGP + turmeric extract, 30 min after administration", "value": 1.7, "unit": "fold"}, {"measurement": "fold increase of plasma concentration versus BGP alone", "setting": "[1]; BGP + turmeric extract, 6 h after administration", "value": 1.5, "unit": "fold"}, {"measurement": "change of AUC versus BGP alone (in words)", "setting": "[1]; BGP co-administered with coffee fruit extract", "value": "did not significantly alter"}, {"measurement": "change of AUC versus BGP alone (in words)", "setting": "[1]; BGP co-administered with ginkgo leaf extract", "value": "did not significantly alter"}, {"measurement": "change of AUC versus BGP alone (in words)", "setting": "[1]; [3]", "value": "did not significantly alter; also recorded: not changed"}, {"measurement": "change of AUC versus BGP alone (in words)", "setting": "[1]; BGP co-administered with soybean extract", "value": "did not significantly alter"}, {"measurement": "fold increase of AUC versus BGP administered alone", "setting": "[1]; [4]", "value": 1.4, "unit": "fold"}, {"measurement": "Papp MDCK II A to B", "setting": "MDCK II cell monolayer; [5]", "value": "13.0 ± 0.8 10^−6 cm/s"}, {"measurement": "Papp MDCK II B to A", "setting": "MDCK II cell monolayer; [5]", "value": "10.8 ± 0.1 10^−6 cm/s"}, {"measurement": "Papp MDCK II A to B", "setting": "MDCK II cell monolayer; [6]", "value": "14.0 ± 0.7 10^−6 cm/s"}, {"measurement": "Papp MDCK II B to A", "setting": "MDCK II cell monolayer; [6]", "value": "11.2 ± 1.2 10^−6 cm/s"}, {"measurement": "Flux ratio (MDCK II) (efflux ratio, ER)", "setting": "MDCK II cell monolayer; Papp B to A / Papp A to B, Table 2 experiment", "value": 0.8}]}, {"molecule": "CC(C)=CCc1cc(/C=C/C(=O)O)ccc1O", "note": "[drupanin]", "values": [{"measurement": "AUC", "setting": "[1]; male, Wistar/ST, rat, plasma, po, BGP 75 mg/kg co-administered with gotu kola extract 250 mg/kg, read-out: AUC", "value": "629 ± 167", "unit": "ng·h/mL"}, {"measurement": "AUC", "setting": "[1]; male, Wistar/ST, rat, plasma, po, BGP 75 mg/kg co-administered with turmeric extract 250 mg/kg, read-out: AUC", "value": "627 ± 148", "unit": "ng·h/mL"}, {"measurement": "plasma concentration, BGP alone versus BGP and turmeric (in words)", "setting": "[1]", "value": "did not differ"}, {"measurement": "change of plasma concentration versus BGP alone (in words)", "setting": "[1]; BGP + turmeric extract, at 30 min and 3 h", "value": "significant increases or increasing trends"}, {"measurement": "change of AUC versus BGP alone (in words)", "setting": "[1]; [3]", "value": "tended to increase"}, {"measurement": "fold increase of AUC versus BGP administered alone", "setting": "[1]; [3]", "value": 1.3, "unit": "fold"}, {"measurement": "fold increase of AUC versus BGP administered alone", "setting": "[1]; [4]", "value": 1.3, "unit": "fold"}, {"measurement": "Papp A→B at 120 min, 10 μM", "setting": "MDR1 (P-gp); [7]", "value": "13.3 ± 1.4", "unit": "×10⁻⁶ cm/s"}, {"measurement": "Papp B→A at 120 min, 10 μM", "setting": "MDR1 (P-gp); [7]", "value": "11.2 ± 0.2", "unit": "×10⁻⁶ cm/s"}, {"measurement": "efflux ratio at 120 min, 10 μM", "setting": "MDR1 (P-gp); read-out: Flux ratio (MDCK II‐MDR1) (efflux ratio, ER)", "value": 0.8}, {"measurement": "efflux ratio at 120 min, 10 μM", "setting": "[2]; Table 2 experiment", "value": 0.9}, {"measurement": "efflux ratio at 120 min, 10 μM", "setting": "[2]; Table 3 experiment", "value": 0.8}, {"measurement": "Papp A→B at 120 min, 10 μM", "setting": "[2]; [8]", "value": "11.1 ± 0.2", "unit": "×10⁻⁶ cm/s"}, {"measurement": "Papp B→A at 120 min, 10 μM", "setting": "[2]; [8]", "value": "9.9 ± 0.2", "unit": "×10⁻⁶ cm/s"}, {"measurement": "Papp A→B at 120 min, 10 μM", "setting": "[2]; [9]", "value": "11.6 ± 0.1", "unit": "×10⁻⁶ cm/s"}, {"measurement": "Papp B→A at 120 min, 10 μM", "setting": "[2]; [9]", "value": "8.9 ± 0.4", "unit": "×10⁻⁶ cm/s"}]}]}
